{
  "source": "patent US20110263542A1",
  "about": "“METHODS TO TREAT PAIN USING AN ALPHA-2 ADRENERGIC AGONIST AND AN ENDOTHELIN ANTAGONIST” (ENGOGENX, priority 2008, published 2011)",
  "key": {"[1]": {"conditions": "cited from earlier work"}, "[2]": {"conditions": "cited from earlier work", "remark": "listed apart in the source"}, "rats": {"test_system": "rats", "conditions": "for analgesic effect of agent alone (in words): clonidine 1 mg/kg ip; for effect of antagonist on clonidine induced potentiation of morphine analgesia / effect of antagonist on clonidine induced potentiation of oxycodone analgesia: idazoxan 2 mg/kg ip or yohimbine 2 mg/kg ip 15 min before clonidine 1 mg/kg ip; for effect of antagonist on clonidine induced potentiation of morphine analgesia: morphine 8 mg/kg sc"}, "[3]": {"test_system": "patients, immediately after spinal fusion", "conditions": "cited from earlier work"}, "Body temperature in mice": {"experiment": "Body temperature in mice", "type": "in vivo", "conditions": "clonidine 0.3 mg/kg with 0.5% CMC or sulfisoxazole 250, 500 or 1000 mg/kg; after 3 hours; FIG. 6B"}, "[4]": {"test_system": "patients undergoing cesarean delivery", "conditions": "epidural clonidine 75 μg; cited from earlier work"}, "mice": {"test_system": "mice", "experiment": "Tail-flick latency (antinociception) in mice", "method": "Animals: Male Swiss Webster mice weighing 25 to 30 g (Harlan, Indianapolis, IN) were used. The animals were housed five per cage in a room with controlled ambient temperature (23±1° C.), humidity (50±10%) and twelve-hour light/dark cycle (6.00 AM to 6.00 PM). Food and water were made available ad libitu Experiments were carried out after the animals had been acclimated to this environment for at least 4 days.\nStatistics: All data values are presented as mean±SEM. ANOVA followed by post-hoc test (Bonferroni's Test) were used to test differences within and between groups. A level of P<0.05 was considered significant.\nApplication of theiinal stimulation (focused light) to the tail of an animal provoked withdrawal of the tail by a brief vigorous movement. The reaction time of this movement was recorded as tail-flick latency by using an analgesiometer. […] A cutoff time of 10 sec was used to prevent damage to the tail. Tail flick latency values were subtracted from the basal latency and the differential values were used to calculate the area under the curve (AUC)."}, "[5]": {"test_system": "patients having coronary artery bypass graft surgery", "conditions": "cited from earlier work"}},
  "note": "“Also recorded” adds a separate entry of the source. Where a name gives a salt, the structure may show the parent alone. Read-outs that look alike come from different tables or passages of the source.",
  "data": [
    {"molecule": "4-amino-N-(3,4-dimethyloxazol-5-yl)-benzenesulfonamide [Sulfisoxazole]", "values": [
      {"measurement": "solubility (in words)", "setting": "[1]", "result": "highly soluble"},
      {"measurement": "concentration in the cerebrospinal fluid (in words)", "setting": "[2]; average, relative to blood", "result": "about a third of blood concentration"},
      {"measurement": "excreted in urine by kidney", "setting": "[2]; in 24 hours", "result": 95, "unit": "%"},
      {"measurement": "binding to plasma proteins (in words)", "setting": "[2]; in vivo", "result": "extensively bound to plasma proteins"}
    ]},
    {"molecule": "Cc1noc(NS(=O)(=O)c2cccc3c(N(C)C)cccc23)c1C", "note": "[BMS182874, 5-(dimethylamino)-N-(3,4-dimethyl-5-isoxazolyl)-1-naphthalene sulfonamide]", "values": [
      {"measurement": "analgesic effect of agent alone (in words)", "setting": "rats; BMS182874 50 μg icv", "result": "did not produce any analgesic effect"}
    ]},
    {"molecule": "Clc1cccc(Cl)c1NC1=NCCN1", "note": "[Clonidine, N-(2,6-dichlorophenyl)-4,5-dihydro-1H-imidazol-2-amine]", "values": [
      {"measurement": "change in mean arterial pressure", "setting": "[3]; clonidine group at T11", "result": "−26+/−2%"},
      {"measurement": "mean arterial pressure", "setting": "[3]; clonidine group", "result": "74+/−2 mmHg"},
      {"measurement": "morphine requirement, dose for each patient", "setting": "[3]; clonidine group, placebo 10.8+/−1.2", "result": "3.8 ± 1", "unit": "mg"},
      {"measurement": "pain score (visual analog scale 0-100 mm) after treatment", "setting": "[3]; clonidine i.v. 5 micrograms/kg 1st h then 0.3 microgram/kg/h for 11 h, decreased from 42+/−5, mean+/−standard error", "result": "26+/−3 mm"},
      {"measurement": "body temperature, lowest value (from 37° C.)", "setting": "Body temperature in mice", "result": "approximately 32 °C"},
      {"measurement": "effect on duration of analgesia produced by 2 mg of morphine", "setting": "[4]", "result": "doubled"},
      {"measurement": "AUC0→240 min determined from tail flick latency", "setting": "mice; Example 3, FIG. 1B: morphine 4 mg/kg s.c., clonidine 2 mg/kg i.p. 30 min before morphine or vehicle, mean±SEM, N=6", "result": "68.4±12.3"},
      {"measurement": "AUC0→240 min of tail flick latency", "setting": "mice; Example 5 Study 2, FIG. 4: clonidine 2 mg/kg i.p., sulfisoxazole 1000 mg/kg oral, morphine 8 mg/kg s.c., mean±SEM, N=6", "result": "increase in AUC"},
      {"measurement": "tail flick latency (in words)", "setting": "mice; clonidine 0.3 mg/kg i.p. plus 0.5% CMC p.o., by 6 hours", "result": "approximately the level of vehicle treated animals"},
      {"measurement": "analgesic effect of agent alone (in words)", "setting": "rats; BMS182874 50 μg icv", "result": "produced analgesia; also recorded: significant"},
      {"measurement": "effect on morphine analgesia in rats treated with BMS182874", "setting": "rats; clonidine 0.3 and 1.0 mg/kg ip, BMS182874 50 μg icv, morphine 4 mg/kg sc", "result": "increase in morphine analgesia"},
      {"measurement": "effect on oxycodone analgesia in rats treated with BMS182874", "setting": "rats; clonidine 0.3 and 1.0 mg/kg ip, BMS182874 50 μg icv, oxycodone 4 mg/kg sc", "result": "increase in oxycodone analgesia"}
    ]},
    {"molecule": "c1ccc2c(c1)OCC(C1=NCCN1)O2", "note": "(centres unmarked) [Idazoxan, 2-(1,4-benzodioxan-2-yl)-2-imidazoline]", "values": [
      {"measurement": "effect of antagonist on clonidine induced potentiation of morphine analgesia", "setting": "rats", "result": "did not affect; also recorded: No effect"},
      {"measurement": "effect of antagonist on clonidine induced potentiation of oxycodone analgesia", "setting": "rats; oxycodone 4 mg/kg sc", "result": "Blocked"}
    ]},
    {"molecule": "CN1CC[C@]23c4c5ccc(O)c4O[C@H]2[C@@H](O)C=C[C@H]3[C@H]1C5.O=S(=O)(O)O", "note": "[Morphine, 7,8-didehydro-4,5α-epoxy-17-methylmorphinan-3,6α-diol sulfate]", "values": [
      {"measurement": "morphine dosage in the first 24 h, median (25th-75th percentiles)", "setting": "[5]; i.v. PCA morphine group (control)", "result": "37 (30.5-51) mg"},
      {"measurement": "morphine dosage in the first 24 h, median (25th-75th percentiles)", "setting": "[5]; intrathecal morphine 4 microg/kg group, plus i.v. PCA morphine", "result": "40.5 (15-61.5) mg"}
    ]},
    {"molecule": "COC(=O)[C@@H]1[C@H]2C[C@H]3c4[nH]c5ccccc5c4CCN3C[C@@H]2CC[C@@H]1O", "note": "[Yohimbine, 17α-hydroxy-yohimban-16α-carboxylate hydrochloride]", "values": [
      {"measurement": "effect of antagonist on clonidine induced potentiation of morphine analgesia", "setting": "rats; hydrochloride", "result": "Blocked"},
      {"measurement": "effect of antagonist on clonidine induced potentiation of oxycodone analgesia", "setting": "rats; oxycodone 4 mg/kg sc, hydrochloride", "result": "Blocked"}
    ]}
  ]
}
